± gives the standard deviation of the averaged measurements.
Tested on: HEK293 NF-kB-luciferase reporter cells
Assay: NF-kB luciferase reporter activity, robust Z-score vs plate median (robust Z-score (log luminescence)); higher = stronger NF-kB reporter activation
Conditions: TNF treatment time 8.5 h, transfection time 72 h
Method: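 Primary screen of an Ambion Pre-miR miRNA mimic library (miRBase v8.0, 1.6 pmol/well, 384-well, duplicate) reverse-transfected into HEK293 cells stably expressing a 5x NF-kB firefly luciferase reporter. After 72 h the cells were treated with vehicle or TNF (40 ng/mL) for 8.5 h and luminescence was read (BriteLite). Raw luminescence was log-transformed and converted to a robust Z-score per plate: (x - plate median)/plate MAD. Sequence given is the mature miRNA strand of the double-stranded mimic.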

Sequence	NF-kB luciferase reporter activity (TNF 0 ng/mL)	NF-kB luciferase reporter activity (TNF 40 ng/mL)
UUCUCCAAAAGGGAGCACUUUC	1.07 ± 0.25	-1.42 ± 0.11
AAGUGCUGUCAUAGCUGAGGUC	-0.706 ± 0.31	-0.185 ± 0.21
AUUACAUGGCCAAUCUC	0.0633 ± 0.4	0.754 ± 0.24
UACUCAGGAGAGUGGCAAUCACA	1.06 ± 0.93	-0.306 ± 0.029
UGAGAACUGAAUUCCAUAGGCU	-1.29 ± 0.15	0.439 ± 0.12
CGGGUGGAUCACGAUGCAAUUU	0.731 ± 0.46	-2.0207 ± 0.0002
AACGCGCUUCCCUAUAGAGGG	-0.412 ± 0.44	0.629 ± 0.15
UAUACAAGGGCAAGCUCUCUGU	-1.38 ± 0.64	-1.11 ± 0.035
AGGACCUGCGGGACAAGAUUCUU	-0.175 ± 0.95	1.11 ± 0.19
UAGGCAGUGUCAUUAGCUGAUUG	2.71 ± 0.93	-1.42 ± 0.053
CAGCAGCAAUUCAUGUUUUGAA	1.16 ± 0.43	0.65 ± 0.09
GUGUCUUUUGCUCUGCAGUCA	0.568 ± 0.32	0.168 ± 0.045
AUCAGCAAACAUUUAUUGUGUG	-0.389 ± 0.14	-0.5 ± 0.044
CGAAUGUUGCUCGGUGAACCCCU	-1.7 ± 0.2	-2.17 ± 0.28
UCUUGGAGUAGGUCAUUGGGUGG	1.37 ± 0.57	0.913 ± 0.027
AUCGUGCAUCCCUUUAGAGUGUU	4.42 ± 0.37	0.437 ± 0.046
CGCAUCCCCUAGGGCAUUGGUGU	-0.887 ± 0.054	-0.479 ± 0.1
AAUCCUUGGAACCUAGGUGUGAGU	0.598 ± 0.14	0.0708 ± 0.057
AGAGGUAUAGGGCAUGGGAAAA	-0.25 ± 0.57	-1.06 ± 0.24
UUUGUUCGUUCGGCUCGCGUGA	-0.464 ± 1	-3.19 ± 0.074
CUCUAGAGGGAAGCACUUUCU	0.466 ± 0.17	0.664 ± 0.074
AAAGUGCAUCCUUUUAGAGGUUU	-0.831 ± 1	-0.425 ± 0.04

Sequence	NF-kB luciferase reporter activity (TNF 0 ng/mL)	NF-kB luciferase reporter activity (TNF 40 ng/mL)
UGAUUGGUACGUCUGUGGGUAGA	-0.152 ± 0.091	-0.9703 ± 0.0044
UUUAACAUGGGGGUACCUGCUG	-0.207 ± 0.29	0.504 ± 0.055
AAGUGCUUCCUUUUAGAGGGUU	-1.7 ± 0.2	-1.29 ± 0.042
AGAUCGACCGUGUUAUAUUCGC	0.225 ± 0.32	-0.0562 ± 0.026
CUGUGCGUGUGACAGCGGCUGA	0.091 ± 0.43	-2.3857 ± 0.00042
CCACACCGUAUCUGACACUUU	-0.604 ± 0.17	0.0155 ± 0.04
CUUUCAGUCGGAUGUUUACAGC	-0.449 ± 0.15	1 ± 0.025
CCCAGUGUUUAGACUAUCUGUUC	-0.547 ± 0.91	-0.613 ± 0.27
AUCGUGCAUCCUUUUAGAGUGU	4.81 ± 0.46	0.331 ± 0.0088
CUGGACUUGGAGUCAGAAGGCC	-1.02 ± 0.24	-0.191 ± 0.11
GUCAUACACGGCUCUCCUCUCU	0.54 ± 0.4	-1.19 ± 0.14
AAUUGCACUUUAGCAAUGGUGA	0.232 ± 0.073	-0.707 ± 0.14
UAAGUGCUUCCAUGUUUUGGUGA	-1.29 ± 0.15	-0.801 ± 0.13
CAGCAGCACACUGUGGUUUGU	0.765 ± 0.17	0.0663 ± 0.052
GCACAUUACACGGUCGACCUCU	-0.263 ± 0.11	1.28 ± 0.042
CUUUUUGCGGUCUGGGCUUGC	0.334 ± 0.36	-0.65 ± 0.076
CAUCUGGAGGUAAGAAGCACUUU	0.889 ± 0.59	-1.17 ± 0.072
UGUCUGCCCGCAUGCCUGCCUCU	1.07 ± 0.88	0.822 ± 0.046
UGAGGUAGGAGGUUGUAUAGU	-0.314 ± 0.58	-0.881 ± 0.37
GUGCCGCCAUCUUUUGAGUGU	0.919 ± 0.46	-1.45 ± 0.12
UGGAGAGAAAGGCAGUUC	0.465 ± 0.4	0.268 ± 0.031
AACUGGCCCUCAAAGUCCCGCUUU	1.11 ± 0.46	-0.934 ± 0.19

Sequence	NF-kB luciferase reporter activity (TNF 0 ng/mL)	NF-kB luciferase reporter activity (TNF 40 ng/mL)
UCUGGCUCCGUGUCUUCACUCC	0.957 ± 0.014	-1.34 ± 0.046
CUGACCUAUGAAUUGACAGCC	-0.152 ± 0.091	-0.0202 ± 0.12
AACAUUCAUUGUUGUCGGUGGGUU	0.371 ± 0.31	-0.631 ± 0.082
UAUGUAAUAUGGUCCACAUCUU	-1.06 ± 0.48	-1.342 ± 0.0044
UCUGCAAAGGGAAGCCCUUU	0.625 ± 1.3	0.788 ± 0.045
AGACCCUGGUCUGCACUCUAU	0.885 ± 0.42	0.7 ± 0.065
AAAGUGCAUCCUUUUAGAGUGUUAC	-1.8 ± 0.56	-0.116 ± 0.027
CCACUGCCCCAGGUGCUGCUGG	0.831 ± 0.013	-0.0587 ± 0.18
AAAAGCUGGGUUGAGAGGGCGAA	-0.418 ± 0.33	-0.74 ± 0.12
GAAGGCGCUUCCCUUUGGAGU	-0.702 ± 0.69	-0.567 ± 0.046
AAAGUGCCUCCUUUUAGAGUGU	-1.14 ± 0.07	-0.561 ± 0.048
AACGCACUUCCCUUUAGAGUGU	0.317 ± 0.45	0.826 ± 0.073
ACUAGACUGAAGCUCCUUGAGG	-0.0115 ± 0.13	0.7434 ± 0.0017
CUGGCCCUCUCUGCCCUUCCGU	0.704 ± 0.42	-0.112 ± 0.19
CACCCGUAGAACCGACCUUGCG	-0.634 ± 0.41	0.175 ± 0.09
AAAGUGCUUCCCUUUGGACUGU	-1.29 ± 0.15	-0.57 ± 0.16
UCCGUCUCAGUUACUUUAUAGCC	0.757 ± 0.51	0.334 ± 0.055
AAAGCGCUUCCCUUUGCUGGA	-0.603 ± 0.07	0.608 ± 0.072
AAAGCGCUUCCCUUCAGAGUGU	0.00327 ± 0.13	0.467 ± 0.04
UAAUACUGUCUGGUAAAACCGU	-0.175 ± 0.95	0.65 ± 0.15
AGGUUACCCGAGCAACUUUGCA	0.305 ± 0.58	-0.0618 ± 0.016
UGGUAGACUAUGGAACGUA	0.274 ± 0.8	0.0556 ± 0.21

Sequence	NF-kB luciferase reporter activity (TNF 0 ng/mL)	NF-kB luciferase reporter activity (TNF 40 ng/mL)
UGAAGGUCUACUGUGUGCCAG	-0.779 ± 1.1	-1.55 ± 0.32
CAAAGCGCUUCCCUUUGGAGC	0.207 ± 0.18	0.305 ± 0.0055
GAAGGCGCUUCCCUUUAGAGC	-0.845 ± 0.78	-0.47 ± 0.02
UAGCACCAUCUGAAAUCGGUU	0.81 ± 0.93	-2.2 ± 0.16
GAAGUGCUUCGAUUUUGGGGUGU	-1.7 ± 0.2	-0.363 ± 0.1
ACAUAGAGGAAAUUCCACGUUU	0.113 ± 0.85	-0.459 ± 0.0079
CUGCAAAGGGAAGCCCUUUCU	-0.197 ± 1	-0.78 ± 0.054
UUUCAAGCCAGGGGGCGUUUUUC	0.765 ± 0.45	0.885 ± 0.064
CAAAGCGCUCCCCUUUAGAGGU	0	0.254 ± 0.098
UAAGUGCUUCCAUGUUUGAGUGU	-1.48 ± 0.11	-0.618 ± 0.12
AAUAUAACACAGAUGGCCUGU	0.148 ± 0.35	0.874 ± 0.29
GCUGCGCUUGGAUUUCGUCCCC	-0.0918 ± 0.13	0.328 ± 0.013
AAAGUGCUUCCUUUUAGAGGC	-1.48 ± 0.11	-0.83 ± 0.031
UCACUCCUCUCCUCCCGUCUUCU	2.53 ± 0.2	1.87 ± 0.1
CACUCAGCCUUGAGGGCACUUUC	-0.36 ± 0.51	1.02 ± 0.045
AUCAUAGAGGAAAAUCCAUGUU	-0.92 ± 0.38	-1.03 ± 0.066
AAUCAUACACGGUUGACCUAUU	0	-0.0786 ± 0.0065
UUAUCAGAAUCUCCAGGGGUAC	-0.469 ± 0.36	-0.796 ± 0.17
UUAUAAUACAACCUGAUAAGUG	-0.295 ± 1.1	-0.534 ± 0.029
AAAGUGCUUCCUUUUUGAGGG	-1.7 ± 0.2	-0.497 ± 0.23
GCCUGCUGGGGUGGAACCUGG	-0.469 ± 0.36	0.451 ± 0.051
AGGGCCCCCCCUCAAUCCUGU	1.69 ± 0.94	0.259 ± 0.1

Reference: the supplement of paper PMC3621838
